Laboratory results: PMC8537458, “Anti-Inflammatory Azaphilones from the Edible Alga-Derived Fungus Penicillium sclerotiorum” (Marine Drugs, 2021)
Entries after “also recorded” stand apart in the source; their conditions may differ.

Experiments:
Assay type in all cases: cell-based
[1] = system: NFκB responsive element luciferase reporter in HEK293A cells; assay: NFκB transcriptional activity reporter assay; conditions: 20 ng/mL TNF-α, 24 h, n = 6
Method: (§1) Reporter plasmids (Promega, Madison, WI, USA) with luciferase driven by NFκB or SMAD responsive elements were stably established in HEK293A cells and maintained by a puromycin-containing culture medium. Chemiluminescence levels represent the luciferase expression was determined by the ONE-Glo reagent (Promega, USA). The fold change of each group to the DMSO vehicle control group was calculated.
(§2) Statistical analysis was conducted via a one-tailed unpaired t-test in comparison compound treating group with the group only treated with TNF-α or TGF-β by Microsoft Excel software. The significance was annotated on plots of the result, * for p < 0.05, ** for p < 0.01, and *** for p < 0.001.

[2] = system: phospho-NFκB p65(S536); assay: TNF-α-induced NFκB phosphorylation by immunoblotting; conditions: 20 ng/mL TNF-α, 30 min, THP-1 cells, n = 3
Method: (§3) THP-1 monocyte cell line that was gifted from Prof. Tsung-Hsien Chang (National Defense Medical Center, Taiwan) was used to examine for TNF-α-induced NFκB phosphorylation; CCD966SK fibroblast cell line that purchased from Bioresource Collection and Research Centre (BCRC; Taiwan) was used to examine for TGF-β-induced Smad2/3 phosphorylation. The procedure of protein preparation, separation, blotting, and detection was conducted referred to previously. The primary antibodies against phospho-NFκB p65(S536), NFκB p65, phospho-Smad 2(S465/467)/Smad 3(S423/425), and Smad 2/3 were purchased from Cell Signaling (USA). The level of Gapdh expression served as an internal control for protein loading. The annotated number represents the quantified level from normalized by both NFκB p65/Smad 2/3 and Gapdh and calculated the fold change phospho-NFκB or phospho-Smad 2/3 to their DMSO vehicle control group by ImageJ software. IκB/IKK inhibitor BAY 11-7082 (Cayman) and TGFβRI inhibitor LY3200882 (Medchemexpres) as positive controls.
as §2

[3] = system: SMAD responsive element luciferase reporter in HEK293A cells; assay: SMAD transcriptional activity reporter assay; conditions: 20 ng/mL TGF-β, 24 h
Method: as §1, §2

[4] = MTT cytotoxicity assay, summary over the cell panel; conditions: human; general density of 1 × 10^4/96-well; most cells / various cancer cells
Method: (§4) The cell lines A549, MCF-7, MDA-MB-231, SH-SY5Y, and WI-38 were purchased from Bioresource Collection and Research Centre (BCRC; Taiwan). […] Chin-Chung Wu (Kaohsiung Medical University, Taiwan), and HCT15 and HCT116 cells were given by Prof. Chen-Yang Shen (Academia Sinica, Taiwan). 1 × 10^3 or 1 × 10^4 cells were seeded in a 96-well one day before compounds treatment.

[5] = system: SH-SY5Y; assay: MTT cytotoxicity assay; conditions: among seven cancer and one fibroblast cell lines
Method: as §4

[6] = MTT cytotoxicity assay; conditions: human, SH-SY5Y neuroblastoma cells
Method: as §4

[7] = system: phospho-Smad 2(S465/467)/Smad 3(S423/425); assay: TGF-β-induced Smad2/3 phosphorylation by immunoblotting; conditions: 20 ng/mL TGF-β, 30 min, CCD966SK fibroblasts, n = 3
Method: as §3, §2

Cc1ccc(S(=O)(=O)/C=C/C#N)cc1 [BAY 11-7082, reference compound]
NFκB transcriptional activity by reporter assay ([1]; 10 μM positive control): alter
TNF-α-induced NFκB phosphorylation ([2]; 10 μM positive control): significantly reduce

CCC(C)C(O)C(C)(O)C=CC1=CC2=C(Cl)C(=O)C(C)(O)C(OC(C)=O)C2CO1 (stereo not drawn) [Compound 1, 8a-epi-hypocrellone A]
NFκB transcriptional activity by reporter assay ([1]; 20 μM compound): did not change; also recorded: remains
TGF-β-stimulated SMAD transcriptional activity ([3]; 20 μM compound, n = 6): increased
IC50 at 48 h [4]: > 100 µM
TNF-α-induced NFκB phosphorylation ([2]; 20 μM compound): inhibit; also recorded: significantly reduce
selective toxicity toward SH-SY5Y [5]: selective toxicity
IC50 at 48 h ([6]; general density 1 × 10^4/96-well (Table 2)): 35.6 µM
IC50 at 48 h ([6]; very low density 1 × 10^3/96-well (Table 3)): 26.8 µM

CCC(C)C(O)C(C)(O)C=CC1=CC2=C(Cl)C(=O)C(C)(O)C(OC(C)=O)C2CO1 (stereo not drawn) [Compound 2, 8a-epi-eupenicilazaphilone C]
TGF-β-stimulated SMAD transcriptional activity ([3]; 20 μM compound, n = 6): promote; also recorded: increased
TGF-β-induced Smad2/3 phosphorylation ([7]; 20 μM compound): significantly increase; also recorded: promote

CC[C@H](C)[C@@H](O)[C@](C)(O)/C=C/C1=CC2=C(Cl)C(=O)[C@](C)(O)[C@H](OC(C)=O)[C@H]2CO1 [Compound 3, hypocrellone A]
NFκB transcriptional activity by reporter assay ([1]; 20 μM compound): did not change; also recorded: remains
IC50 at 48 h [4]: > 100 µM
TNF-α-induced NFκB phosphorylation ([2]; 20 μM compound): inhibit; also recorded: significantly reduce
TGF-β-induced Smad2/3 phosphorylation ([7]; 20 μM compound): decrease

CC[C@H](C)[C@@H](O)[C@@](C)(O)/C=C/C1=CC2=C(Cl)C(=O)[C@](C)(O)[C@H](OC(C)=O)[C@H]2CO1 [Compound 4, eupenicilazaphilone C]
TGF-β-stimulated SMAD transcriptional activity ([3]; 20 μM compound, n = 6): increased
IC50 at 48 h [4]: > 100 µM

CC[C@H](C)/C=C(C)/C=C/c1cc(O)c(C)c(O)c1C=O [Compound 5, ((1E,3E)-3,5-dimethylhepta-1,3-dien-1-yl)-2,4-dihydroxy-3-methylbenzaldehyde]
IC50 at 48 h [4]: > 100 µM

CC[C@H](C)/C=C(C)/C=C/C1=CC2=C(Cl)C(=O)[C@](C)(OC(C)=O)C(=O)C2=CO1 [Compound 6, sclerotiorin]
TGF-β-stimulated SMAD transcriptional activity ([3]; 20 μM compound, n = 6): inhibited; also recorded: decreased
IC50 at 48 h [4]: > 100 µM
TGF-β-induced Smad2/3 phosphorylation ([7]; 20 μM compound): inhibited

CC[C@H](C)/C=C(C)/C=C/C1=CC2=C(Cl)C(=O)[C@](C)(O)[C@H](OC(C)=O)[C@H]2CO1 [Compound 7, isochromophilone IV]
NFκB transcriptional activity by reporter assay ([1]; 20 μM compound): did not change; also recorded: remains
IC50 at 48 h [4]: > 100 µM
TNF-α-induced NFκB phosphorylation ([2]; 20 μM compound): inhibit; also recorded: significantly reduce

CC(C)(O)c1cc(Nc2cc(Oc3cn(C4CC4)nc3C3CCOCC3)ccn2)ccn1 [LY3200882, reference compound]
TGF-β-stimulated SMAD transcriptional activity ([3]; 1 μM positive control, n = 6, listed as TGFβRI inhibitor): decreased
TGF-β-induced Smad2/3 phosphorylation ([7]; 1 μM positive control, listed as TGFβRI inhibitor): trend toward a decrease

COc1cccc2c1C(=O)c1c(O)c3c(c(O)c1C2=O)C[C@@](O)(C(=O)CO)C[C@@H]3O[C@H]1C[C@H](N)[C@H](O)[C@H](C)O1 [doxorubicin, reference compound]
IC50 at 48 h [4]: 0.36 to 3.7 µM
